# In patent publication US6417167B1, “Lyophilized compositions containing shingoglycolipid and process for preparing them” (Kirin Beer Kabushiki Kaisha, priority 1997, dated 2002):
# Assay: Excipient appropriate to lyophilization 1: re-solubility immediately after lyophilization
# Format: physicochemical
# Details: KRN7000 200 μg/ml, Polysorbate 20 0.5%
# Procedure: A variety of monosaccharides and disaccharides were used for examination of excipients of the lyophilized preparation. In this context, the active component (KRN7000) was set at the concentration of 200 μg/ml, and Polysorbate 20 which is used only in a limited amount from the viewpoint of safety was set at the concentration of 0.5% in the following examination.
# First, Polysorbate 20 was dissolved in distilled water in a concentration of 0.5%, and the saccharides were dissolved in such concentrations as listed in Table 6. Next, 20 mg of the active component (KRN7000) was weighed and stirred in 100 ml of the solvents in a heated bath to 80° C. for 20 minutes in order to form a solution. After cooling with running water, the mixture was filtered through a 0.22 μm filter, and transparent colorless glass vials having a volume of 5 ml were charged with a 1 ml portion of each of a variety of solutions thus obtained and subjected to lyophilization. Lyophilization was carried out under the condition of preliminary freezing at −40° C. for 2 hours and drying at −20° C. for 24 hours, 10° C. for 12 hours, and finally at 25° C. for 5 hours to give the lyophilized product. The degree of vacuum was set at 0.1 Torr or less during drying step.
# After the lyophilization step, the lyophilized composition was reconstituted in 1 ml of distilled water for injection, left standing for 30 minutes, and solubility was judged when the foams generated on reconstitution disappeared.
# The solubility was judged by cleaning the outside of the vial and placing it beneath the white light source in a darkroom for observation with naked eye at the position of a luminous intensity of about 5,000 lux. When the sample was clear with no precipitates, it was judged that the active component was dissolved.
smiles,measurement,setting,value
"CCCCCCCCCCCCCCCCCCCCCCCCCC(=O)N[C@@H](CO[C@H]1O[C@H](CO)[C@H](O)[C@H](O)[C@H]1O)[C@H](O)[C@H](O)CCCCCCCCCCCCCC [KRN7000, (2S,3S,4R)-1-(α-D-galactopyranosyloxy)-2-hexacosanoylamino-3,4-octadecanediol]",Re-solubility immediately after lyophilization,excipient Fructose 5%,+ (not dissolved (or deposited))
same,Re-solubility immediately after lyophilization,excipient Fructose 10%,+ (not dissolved (or deposited))
same,Re-solubility immediately after lyophilization,excipient Glucose 5%,− (dissolved)
same,Re-solubility immediately after lyophilization,excipient Glucose 10%,+ (not dissolved (or deposited))
same,Re-solubility immediately after lyophilization,excipient Lactose 5%,+ (not dissolved (or deposited))
same,Re-solubility immediately after lyophilization,excipient Lactose 10%,+ (not dissolved (or deposited))
same,Re-solubility immediately after lyophilization,excipient Maltose 1.5%,+ (not dissolved (or deposited))
same,Re-solubility immediately after lyophilization,excipient Maltose 3%,+ (not dissolved (or deposited))
same,Re-solubility immediately after lyophilization,excipient Mannitol 5%,+ (not dissolved (or deposited))
same,Re-solubility immediately after lyophilization,excipient Mannitol 10%,− (dissolved)
same,Re-solubility immediately after lyophilization,excipient Sorbitol 5%,+ (not dissolved (or deposited))
same,Re-solubility immediately after lyophilization,excipient Sorbitol 10%,+ (not dissolved (or deposited))
same,Re-solubility immediately after lyophilization,excipient Sucrose 4.8%,− (dissolved)
same,Re-solubility immediately after lyophilization,excipient Sucrose 9.6%,− (dissolved)
same,Re-solubility immediately after lyophilization,excipient Xylitol 4.3%,+ (not dissolved (or deposited))
same,Re-solubility immediately after lyophilization,excipient Xylitol 8.6%,+ (not dissolved (or deposited))
